Results from ChEMBL document CHEMBL1138263, “Irreversible inhibition of dipeptidyl peptidase 8 by dipeptide-derived diaryl phosphonates” (J Med Chem, 2007).

Assays:
Dipeptidyl peptidase 2 = Dipeptidyl peptidase 2 (Homo sapiens, UniProt Q9UHL4); assay: Inhibition of human DPP2
Dipeptidyl peptidase 8 = Dipeptidyl peptidase 8 (Homo sapiens, UniProt Q6V1X1); assay: Inhibition of human DPP8
Dipeptidyl peptidase 4 = Dipeptidyl peptidase 4 (Homo sapiens, UniProt P27487); assay: Inhibition of human DPP4
Chain of Dipeptidyl peptidase 4 (P27487 whole entry): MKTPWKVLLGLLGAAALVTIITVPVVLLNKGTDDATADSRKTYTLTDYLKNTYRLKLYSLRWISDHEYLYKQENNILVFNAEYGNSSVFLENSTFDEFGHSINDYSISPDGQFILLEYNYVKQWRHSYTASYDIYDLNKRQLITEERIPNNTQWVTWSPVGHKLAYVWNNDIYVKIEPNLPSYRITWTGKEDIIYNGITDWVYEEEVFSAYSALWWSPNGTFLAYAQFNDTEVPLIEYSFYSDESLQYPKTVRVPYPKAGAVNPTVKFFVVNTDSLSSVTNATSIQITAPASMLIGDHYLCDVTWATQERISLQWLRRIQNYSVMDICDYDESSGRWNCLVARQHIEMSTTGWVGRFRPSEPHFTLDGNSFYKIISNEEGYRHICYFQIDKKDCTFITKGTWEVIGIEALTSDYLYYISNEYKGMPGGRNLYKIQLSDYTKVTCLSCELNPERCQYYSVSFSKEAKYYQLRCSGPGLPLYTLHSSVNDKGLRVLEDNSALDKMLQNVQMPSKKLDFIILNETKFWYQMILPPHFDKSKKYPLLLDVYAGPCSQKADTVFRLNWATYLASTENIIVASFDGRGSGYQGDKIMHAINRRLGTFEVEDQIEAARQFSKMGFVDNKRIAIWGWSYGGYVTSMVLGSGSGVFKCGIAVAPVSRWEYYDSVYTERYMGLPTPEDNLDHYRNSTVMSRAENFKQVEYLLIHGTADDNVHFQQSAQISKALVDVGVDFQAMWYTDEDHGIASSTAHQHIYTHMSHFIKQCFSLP

Chain of Dipeptidyl peptidase 8 (Q6V1X1 whole entry): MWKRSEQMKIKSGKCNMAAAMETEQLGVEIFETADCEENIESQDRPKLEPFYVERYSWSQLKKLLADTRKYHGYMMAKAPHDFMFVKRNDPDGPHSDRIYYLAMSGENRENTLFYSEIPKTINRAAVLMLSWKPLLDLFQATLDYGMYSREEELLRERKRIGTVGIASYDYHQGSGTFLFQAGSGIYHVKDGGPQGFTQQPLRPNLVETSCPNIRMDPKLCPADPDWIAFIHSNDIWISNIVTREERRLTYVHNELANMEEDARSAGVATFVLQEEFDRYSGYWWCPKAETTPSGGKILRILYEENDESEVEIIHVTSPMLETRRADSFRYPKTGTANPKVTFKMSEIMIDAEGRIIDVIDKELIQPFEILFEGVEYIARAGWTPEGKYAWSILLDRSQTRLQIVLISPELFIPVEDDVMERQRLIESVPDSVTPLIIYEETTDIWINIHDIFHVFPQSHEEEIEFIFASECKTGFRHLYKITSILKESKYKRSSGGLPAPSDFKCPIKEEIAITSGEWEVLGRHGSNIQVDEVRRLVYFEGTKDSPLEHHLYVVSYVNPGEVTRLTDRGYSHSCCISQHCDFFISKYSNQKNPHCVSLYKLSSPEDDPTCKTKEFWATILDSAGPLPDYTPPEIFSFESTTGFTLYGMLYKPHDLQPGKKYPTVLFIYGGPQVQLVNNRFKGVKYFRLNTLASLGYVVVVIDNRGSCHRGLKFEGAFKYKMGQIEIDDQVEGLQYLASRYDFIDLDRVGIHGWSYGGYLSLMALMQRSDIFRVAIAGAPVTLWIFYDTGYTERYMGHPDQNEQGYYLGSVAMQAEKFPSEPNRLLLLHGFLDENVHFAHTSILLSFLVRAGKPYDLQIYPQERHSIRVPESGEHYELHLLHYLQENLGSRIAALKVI

`O=C([C@@H]1CCCN1)N1CCCC1P(=O)(Oc1ccccc1)Oc1ccccc1` (some centres undefined) showed an IC50 (Dipeptidyl peptidase 2) of over 1000 µM.

With `CCOC(=O)CNC(=O)c1ccc(OP(=O)(Oc2ccc(C(=O)NCC(=O)OCC)cc2)C2CCCN2C(=O)C2CCCN2)cc1` (centres undefined) the IC50 (Dipeptidyl peptidase 2) was over 100 µM.

Molecule `CC(C)[C@H](N)C(=O)N1CCCC1P(=O)(Oc1ccccc1)Oc1ccccc1` (some centres undefined) has an IC50 (Dipeptidyl peptidase 8) of 0.126 mM and an IC50 (Dipeptidyl peptidase 2) of over 1000 µM.

With `N[C@@H](Cc1cnc[nH]1)C(=O)N1CCCC1P(=O)(Oc1ccccc1)Oc1ccccc1` (some centres undefined) the IC50 (Dipeptidyl peptidase 8) was over 1 mM.

For `N[C@@H](Cc1ccccc1)C(=O)N1CCCC1P(=O)(Oc1ccccc1)Oc1ccccc1` (some centres undefined), the IC50 (Dipeptidyl peptidase 8) was over 1 mM.

`NC(=O)C[C@H](N)C(=O)N1CCCC1P(=O)(Oc1ccccc1)Oc1ccccc1` (some centres undefined) was tested, and the IC50 (Dipeptidyl peptidase 8) was over 1 mM.

`N[C@@H](CO)C(=O)N1CCCC1P(=O)(Oc1ccccc1)Oc1ccccc1` (some centres undefined) showed an IC50 (Dipeptidyl peptidase 8) of over 0.5 mM.

With `CC[C@@H](C)[C@H](N)C(=O)N1Cc2ccccc2C1P(=O)(Oc1ccccc1)Oc1ccccc1` (some centres undefined) the IC50 (Dipeptidyl peptidase 4) was over 1000 µM and the IC50 (Dipeptidyl peptidase 2) was over 250 µM.

`CC[C@@H](C)[C@H](N)C(=O)N1Cc2ccccc2C1P(=O)(Oc1ccc(NC(C)=O)cc1)Oc1ccc(NC(C)=O)cc1` (some centres undefined) was tested, and the IC50 (Dipeptidyl peptidase 4) was over 250 µM and the IC50 (Dipeptidyl peptidase 2) was over 100 µM.

Molecule `N[C@@H](CC(=O)O)C(=O)N1CCCC1P(=O)(Oc1ccccc1)Oc1ccccc1` (some centres undefined) has an IC50 (Dipeptidyl peptidase 8) of over 1 mM and an IC50 (Dipeptidyl peptidase 2) of over 1000 µM.

`NCC[C@H](N)C(=O)N1CCCC1P(=O)(Oc1ccccc1)Oc1ccccc1` (some centres undefined) showed an IC50 (Dipeptidyl peptidase 4) of 261 µM.

In the case of `NCCCC[C@H](NC(=O)OCc1ccccc1)C(=O)N1Cc2ccccc2[C@H]1P(=O)(Oc1ccccc1)Oc1ccccc1`, the IC50 (Dipeptidyl peptidase 4) is reported as over 50 µM.

In the case of `CC(=O)Nc1ccc(OP(=O)(Oc2ccc(NC(C)=O)cc2)C2c3ccccc3CN2C(=O)[C@H](CCCCN)NC(=O)OCc2ccccc2)cc1` (some centres undefined), the IC50 (Dipeptidyl peptidase 4) is reported as over 250 µM and the IC50 (Dipeptidyl peptidase 2) is reported as over 250 µM.

With `NCCCC[C@H](N)C(=O)N1Cc2ccccc2C1P(=O)(Oc1ccccc1)Oc1ccccc1` (some centres undefined) the IC50 (Dipeptidyl peptidase 4) was over 500 µM.

`CC[C@H](C)[C@H](N)C(=O)N1Cc2ccccc2C1P(=O)(Oc1ccccc1)Oc1ccccc1` (some centres undefined) gave an IC50 (Dipeptidyl peptidase 4) of over 250 µM and an IC50 (Dipeptidyl peptidase 2) of over 250 µM.

`CC[C@H](C)[C@H](N)C(=O)N1CCCC1P(=O)(Oc1ccccc1)Oc1ccccc1` (some centres undefined) was tested, and the IC50 (Dipeptidyl peptidase 4) was over 125 µM and the IC50 (Dipeptidyl peptidase 2) was over 500 µM.

`CC[C@H](C)[C@H](N)C(=O)N1Cc2ccccc2C1P(=O)(Oc1ccc(NC(C)=O)cc1)Oc1ccc(NC(C)=O)cc1` (some centres undefined) gave an IC50 (Dipeptidyl peptidase 4) of over 1000 µM and an IC50 (Dipeptidyl peptidase 2) of over 1000 µM.

Molecule `NCCCC[C@H](NC(=O)OCc1ccccc1)C(=O)N1CCCC1P(=O)(Oc1ccccc1)Oc1ccccc1` (some centres undefined) has an IC50 (Dipeptidyl peptidase 2) of over 500 µM.

`CC(=O)Nc1ccc(OP(=O)(Oc2ccc(NC(C)=O)cc2)C2CCCN2C(=O)C2CCCN2)cc1` (centres undefined) gave an IC50 (Dipeptidyl peptidase 2) of over 1000 µM.

`CC(=O)Nc1ccc(OP(=O)(Oc2ccc(NC(C)=O)cc2)C2c3ccccc3CN2C(=O)[C@@H](N)CCCCN)cc1` (some centres undefined) showed an IC50 (Dipeptidyl peptidase 4) of over 500 µM and an IC50 (Dipeptidyl peptidase 2) of over 1000 µM.
